Source: ChEMBL document CHEMBL4602692, “Synthesis and Biological Evaluation of Tryptamines Found in Hallucinogenic Mushrooms: Norbaeocystin, Baeocystin, Norpsilocin, and Aeruginascin” (J Nat Prod, 2020)
Active and inactive are the calls of the source. No cut-off for these calls is given here.

Key:
[1] = biological target: 5-hydroxytryptamine receptor 2A (Mus musculus) (UniProt P35363); assay: Agonist activity at mouse 5-HT2A receptor expressed in Flp-In T-REx 293 cells assessed as induction of Gq-mediated calcium flux incubated for 1 hr by Flou4-AM dye based FLIPR assay relative to serotonin; assay type: functional, cell-based
5-hydroxytryptamine receptor 2A (Mus musculus), sequence (P35363 whole entry): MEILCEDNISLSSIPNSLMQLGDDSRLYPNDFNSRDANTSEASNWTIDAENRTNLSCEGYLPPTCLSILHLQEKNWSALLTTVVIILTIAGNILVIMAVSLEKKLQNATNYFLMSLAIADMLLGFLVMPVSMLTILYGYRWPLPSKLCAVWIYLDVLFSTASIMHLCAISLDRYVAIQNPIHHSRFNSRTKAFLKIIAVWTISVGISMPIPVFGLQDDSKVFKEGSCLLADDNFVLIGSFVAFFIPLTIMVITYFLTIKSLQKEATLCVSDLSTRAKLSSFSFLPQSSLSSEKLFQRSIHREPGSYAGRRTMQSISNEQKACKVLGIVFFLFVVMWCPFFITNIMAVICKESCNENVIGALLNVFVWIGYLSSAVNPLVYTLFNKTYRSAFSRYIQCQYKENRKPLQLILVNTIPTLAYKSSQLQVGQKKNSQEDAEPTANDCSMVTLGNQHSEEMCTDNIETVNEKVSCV

[2] = biological target: 5-hydroxytryptamine receptor 2A (Mus musculus, UniProt P35363); assay: Agonist activity at mouse 5-HT2A receptor expressed in Flp-In T-REx 293 cells assessed as induction of Gq-mediated calcium flux incubated for 1 hr by Flou4-AM dye based FLIPR assay; assay type: functional, cell-based
5-hydroxytryptamine receptor 2A, sequence (P35363 whole entry): as above

[3] = biological target: 5-hydroxytryptamine receptor 2A (Homo sapiens) (UniProt P28223); assay: Agonist activity at human 5-HT2A receptor expressed in Flp-In T-REx 293 cells assessed as induction of Gq-mediated calcium flux incubated for 1 hr by Flou4-AM dye based FLIPR assay relative to serotonin; assay type: functional, cell-based
5-hydroxytryptamine receptor 2A (Homo sapiens), sequence (P28223 whole entry): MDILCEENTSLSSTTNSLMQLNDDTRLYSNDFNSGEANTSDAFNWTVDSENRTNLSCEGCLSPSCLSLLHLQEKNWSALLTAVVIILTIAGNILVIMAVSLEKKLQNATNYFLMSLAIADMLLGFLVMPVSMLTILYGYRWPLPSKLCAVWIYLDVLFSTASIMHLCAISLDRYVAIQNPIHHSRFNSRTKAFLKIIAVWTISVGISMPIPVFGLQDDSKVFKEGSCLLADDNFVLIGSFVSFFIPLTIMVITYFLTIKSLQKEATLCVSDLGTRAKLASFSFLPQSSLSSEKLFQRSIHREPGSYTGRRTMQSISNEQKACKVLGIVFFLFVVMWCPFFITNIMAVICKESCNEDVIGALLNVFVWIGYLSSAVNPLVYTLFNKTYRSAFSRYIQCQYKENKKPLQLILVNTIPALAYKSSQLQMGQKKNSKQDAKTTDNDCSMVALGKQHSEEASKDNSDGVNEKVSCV

Mus musculus [4] = assay: Induction of head-twitch response in C57BL/6J mouse at 0.03 to 3 mg/kg, ip measured for 20 mins; assay type: functional, organism-based
Mus musculus [5] = assay: Induction of head-twitch response in ip dosed C57BL/6J mouse measured for 20 mins; assay type: functional

Row | SMILES | Emax [1] [%] | EC50 [2] [nM] | Emax [3] [%] | Activity (Mus musculus [4]) | Activity (Mus musculus [5]) | ED50 (Mus musculus [5]) [mg/kg]
1 | CNCCc1c[nH]c2cccc(O)c12 | 99 | 19 | 93 | – | – | –
2 | CN(C)CCc1c[nH]c2cccc(O)c12 [PSILOCIN] | 72 | 9.9 | 73 | – | – | –
3 | CNCCc1c[nH]c2cccc(OP(=O)(O)O)c12 | – | – | – | inactive | – | –
4 | CN(C)CCc1c[nH]c2cccc(OP(=O)(O)O)c12 [PSILOCYBIN] | – | – | – | – | Dose-dependent effect | 0.4
